Measured values as given in patent US20140274992A1, “CEFTOLOZANE PHARMACEUTICAL COMPOSITIONS” (Cubist Pharmaceuticals, Inc., priority 2013, published 2014).

Assay: Intrinsic pH of ceftolozane in solution
Format: physicochemical
Conditions: solution (2%)
Description: A formulation close to physiologic pH was targeted. This necessitates an alkalizing agent due to intrinsic pH 1.92 of ceftolozane in solution (2%). The initial study of alkalizing agents included sodium hydroxide, L-arginine, tris, sodium bicarbonate, meglumine, diethanolamine, and triethanolamine. Samples containing 100 mg ceftolozane sulfate, 22.9 mg sodium chloride, 200 mg maltose, and 2 mg citric acid anhydrous were prepared and adjusted to about pH 4. The samples were lyophilized and powders stored at 70° C. for 3 days, 60° C. for 3, 6 and 9 days and at 40° C. for one month. The stored samples were then analyzed for ceftolozane content.

intrinsic pH of ceftolozane in solution: 1.92
Compound: Cn1c(N)c(NC(=O)NCCN)c[n+]1CC1=C(C(=O)[O-])N2C(=O)[C@@H](NC(=O)/C(=N\OC(C)(C)C(=O)O)c3nsc(N)n3)[C@H]2SC1 [ceftolozane]
